Read-outs that look alike come from different tables or passages of the source.
Test: Mouse PK&BBB (pharmacokinetics and brain penetration)
Format: in vivo, CD-1 mice
Procedure: In this assay, the pharmacokinetic characteristics and ability to penetrate the blood-brain barrier of the compounds of the present application were assayed after administration of some of the compounds of the present application to SD rats, CD-1 mice or beagle dogs by single oral administration and intravenous injection.
(§1) 1. Intravenous (IV) injection group: an appropriate amount of the assay compound was weighed, and completely dissolved in an appropriate volume of vehicle. The mixture was stirred, vortexed and/or sonicated. Once a solution was obtained, the vehicle was gradually added to a final volume to reach the target concentration. The solution was vortexed, and sonicated to obtain a homogeneous solution. The solution was filtered through a 0.22 m PVDF membrane.
as §1, with “2. Oral (PO)” for “1. Intravenous (IV) injection”, “solution.” for “solution. The solution was filtered through a 0.22 m PVDF membrane.”
Meanwhile, the IV group was not fasted and the PO group was fasted overnight (>12 hrs) and given food 2 hrs after drug administration. All animals had free access to water. The dosing regimen and pharmacokinetic sampling regimen are given in Table 10 and Table 11 below, respectively.
Mice were administered according to the above protocol, and blood and brain tissue samples were collected and processed at predetermined time points (collection and processing were performed according to conventional methods in the art).
The brain was weighed and homogenized by adding 4 times of ultrapure water. Six times volume of acetonitrile was added respectively to the whole blood samples and brain homogenate (20 times volume of acetonitrile was added to the whole blood sample of mouse PK). The mixture was vortexed for 1 min and then centrifuged at 4° C., 4500 rpm for 15 min. According to the instrument response, the supernatant was diluted with diluent and the sample was analyzed by LC/MS.
Pharmacokinetic parameters were calculated using WinNonlin software. The following pharmacokinetic parameters were calculated if appropriate plasma/whole blood drug concentration-time data were available: CL (clearance); Vd (apparent volume of distribution); T1/2 (elimination half-life time); Cmax (peak concentration); Tmax (time to peak); AUC (area under plasma drug concentration-time curve); MRT (mean retention time); F % (bioavailability).

[1] = CD-1, mouse, whole blood, iv, 2 mg/kg, IV 2 mg/kg, read-out: Blood drug concentration
[2] = CD-1, mouse, whole blood, po, 20 mg/kg, PO 20 mg/kg, read-out: Blood drug concentration

Kp at 2 h (CD-1, brain / whole blood, PO 20 mg/kg, 2 h after administration, read-out: Brain/blood ratio): 1.85
concentration at 2 h (CD-1, mouse, brain, po, 20 mg/kg, PO 20 mg/kg, 2 h after administration, read-out: Brain concentration): 244 ng/g
concentration at 0 h [1]: 0 ng/mL
concentration at 0.083 h (CD-1, mouse, whole blood, iv, 2 mg/kg, IV 2 mg/kg, 0.083 hr, read-out: Blood drug concentration): 632 ± 86 ng/mL
concentration at 0.25 h [1]: 323 ± 81 ng/mL
concentration at 0.5 h [1]: 150 ± 53 ng/mL
concentration at 1 h [1]: 60.7 ± 28.5 ng/mL
concentration at 2 h (CD-1, mouse, whole blood, iv, 2 mg/kg, IV 2 mg/kg, 2 hr, read-out: Blood drug concentration): 12.3 ± 8.4 ng/mL
concentration at 4 h [1]: 1.77 ± 1.12 ng/mL
concentration at 7 hr [1]: 0.854 ng/mL
concentration at 0 h [2]: 0 ng/mL
concentration at 0.25 h [2]: 284 ± 26 ng/mL
concentration at 0.5 h [2]: 405 ± 46 ng/mL
concentration at 1 h [2]: 399 ± 77 ng/mL
concentration at 2 h (CD-1, mouse, whole blood, po, 20 mg/kg, PO 20 mg/kg, 2 hr, read-out: Blood drug concentration): 163 ± 2 ng/mL
concentration at 4 h [2]: 34.9 ± 19 ng/mL
concentration at 7 hr [2]: 4.85 ± 3.83 ng/mL
concentration at 2 h (CD-1, mouse, whole blood, po, 20 mg/kg, PO 20 mg/kg, whole blood, 2 h after administration, read-out: Blood drug concentration): 132 ng/mL
AUC(0-inf) (CD-1, whole blood, IV 2 mg/kg): 308 ± 82 ng·h/mL
AUC(0-t) (CD-1, whole blood, IV 2 mg/kg): 307 ± 82 ng·h/mL
Vd (CD-1, whole blood, IV 2 mg/kg): 6.97 ± 1.13 L/kg
half-life (CD-1, whole blood, IV 2 mg/kg): 45.3 ± 17.9 min
clearance (CD-1, whole blood, IV 2 mg/kg, read-out: Cl—obs): 114 ± 30.5 mL/min/kg
AUC(0-inf) (CD-1, whole blood, PO 20 mg/kg): 869 ± 57 ng·h/mL
AUC(0-t) (CD-1, whole blood, PO 20 mg/kg): 861 ± 54 ng·h/mL
Cmax (CD-1, whole blood, PO 20 mg/kg): 421 ± 64 ng/mL
Tmax (CD-1, whole blood, PO 20 mg/kg): 50 ± 17.3 min
half-life (CD-1, whole blood, PO 20 mg/kg): 58 ± 12.5 min
bioavailability (CD-1, whole blood, PO 20 mg/kg vs IV 2 mg/kg): 28.2 ± 1.9%
SMILES: O=C(C1CCN(c2cc(-c3cc(OCCCO)ccc3F)ccn2)CC1)N1N=CC[C@H]1c1cc(F)cc(F)c1 (racemic) [Example 40]

Source: patent US20250074892A1, “CARBONYL BRIDGED HETEROCYCLIC COMPOUND, AND COMPOSITION AND APPLICATION THEREOF” (BEIJING SCITECH-MQ PHARMACEUTICALS LIMITED, priority 2022, published 2025)
